PubChem BioAssay AID1963858 (Molecular Pharmacology Branch, DTP, NCI, 2024)

System: HOP-62 multicell spheroids with HUVEC/MSC, viability
Experiment: Anticancer human tumor HOP-62 cell line growth inhibition [KRAS2];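 note: viability read after a week of compound exposure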;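 for viability, T/C: 100% = DMSO vehicle-treated spheroids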
Conditions: for IC50: curve of first compound; for viability, T/C: stronger effect = lower value; active = viability on the fitted dose curve at most 10% of control; inactive = the rest
Summary of the method: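 Combination screen of spheroid viability in tumor-cell co-cultures with endothelial (HUVEC) and mesenchymal stem cell stroma. Each agent was tested in half-log dilutions, topping at clinical Cmax or at 10 microM without a known Cmax.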

[1] = second compound 0.1 µM, first compound 0.0316 µM
[2] = second compound 0.1 µM, first compound 0.1 µM
[3] = second compound 0.316 µM, first compound 0.0316 µM
[4] = second compound 0.316 µM, first compound 0.1 µM
[5] = second compound 1 µM, first compound 0.0316 µM
[6] = second compound 1 µM, first compound 0.1 µM
[7] = second compound 3.16 µM, first compound 0.0316 µM
[8] = second compound 3.16 µM, first compound 0.1 µM

COc1cc2nccc(Oc3ccc(NC(=O)C4(C(=O)Nc5ccc(F)cc5)CC4)cc3)c2cc1OC + C=CC(=O)N1CCN(c2nc(OCC3CCCN3C)nc3c2CCN(c2cccc4cccc(C)c24)C3)CC1CC#N
active: viability, T/C (second compound 0.0316 µM, first compound 10 µM) 8.75% | viability, T/C (second compound 0.316 µM, first compound 10 µM) 8.51% | viability, T/C (second compound 1 µM, first compound 10 µM) 0.15% | viability, T/C [7] 0.14% | viability, T/C [8] 0.75% | viability, T/C (second compound 3.16 µM, first compound 0.316 µM) 0.15% | viability, T/C (second compound 3.16 µM, first compound 1 µM) 0.37% | viability, T/C (second compound 3.16 µM, first compound 3.16 µM) 0.13% | viability, T/C (second compound 3.16 µM, first compound 10 µM) 0.23%
1910 nM: IC50 (second compound 0.0316 µM)
< 31.6 nM: IC50 (second compound 1 µM) | IC50 (second compound 3.16 µM)
1060 nM: IC50 (second compound 0.1 µM)
31.6 nM: IC50 (second compound 0.316 µM)
inactive: viability, T/C (second compound 0.0316 µM, first compound 0.0316 µM) 64.8% | viability, T/C (second compound 0.0316 µM, first compound 0.1 µM) 68.5% | viability, T/C (second compound 0.0316 µM, first compound 0.316 µM) 64% | viability, T/C (second compound 0.0316 µM, first compound 1 µM) 77.8% | viability, T/C (second compound 0.0316 µM, first compound 3.16 µM) 35.4% | viability, T/C [1] 50.5% | viability, T/C [2] 51.4% | viability, T/C (second compound 0.1 µM, first compound 0.316 µM) 49.5% | viability, T/C (second compound 0.1 µM, first compound 1 µM) 53.4% | viability, T/C (second compound 0.1 µM, first compound 3.16 µM) 29% | viability, T/C (second compound 0.1 µM, first compound 10 µM) 12% | viability, T/C [3] 42% | viability, T/C [4] 38.5% | viability, T/C (second compound 0.316 µM, first compound 0.316 µM) 47.9% | viability, T/C (second compound 0.316 µM, first compound 1 µM) 53.8% | viability, T/C (second compound 0.316 µM, first compound 3.16 µM) 24.9% | viability, T/C [5] 27.4% | viability, T/C [6] 31.1% | viability, T/C (second compound 1 µM, first compound 0.316 µM) 25.3% | viability, T/C (second compound 1 µM, first compound 1 µM) 30.6% | viability, T/C (second compound 1 µM, first compound 3.16 µM) 19.9%

Cn1ncnc1[C@H]1c2n[nH]c(=O)c3cc(F)cc(c23)N[C@@H]1c1ccc(F)cc1 + C=CC(=O)N1CCN(c2nc(=O)n(-c3c(C)ccnc3C(C)C)c3nc(-c4c(O)cccc4F)c(F)cc23)C(C)C1
23.3 nM: IC50 (second compound 0.1 µM)
13.5 nM: IC50 (second compound 0.316 µM)
inactive: viability, T/C (second compound 0.1 µM, first compound 0.000316 µM) 64.7% | viability, T/C (second compound 0.1 µM, first compound 0.001 µM) 68.3% | viability, T/C (second compound 0.1 µM, first compound 0.00316 µM) 51.5% | viability, T/C (second compound 0.1 µM, first compound 0.01 µM) 58.3% | viability, T/C [1] 46.8% | viability, T/C [2] 43.5% | viability, T/C (second compound 0.316 µM, first compound 0.000316 µM) 68.5% | viability, T/C (second compound 0.316 µM, first compound 0.001 µM) 69.2% | viability, T/C (second compound 0.316 µM, first compound 0.00316 µM) 53% | viability, T/C (second compound 0.316 µM, first compound 0.01 µM) 56.1% | viability, T/C [3] 41.5% | viability, T/C [4] 41.5% | viability, T/C (second compound 1 µM, first compound 0.000316 µM) 61.9% | viability, T/C (second compound 1 µM, first compound 0.001 µM) 63.8% | viability, T/C (second compound 1 µM, first compound 0.00316 µM) 63% | viability, T/C (second compound 1 µM, first compound 0.01 µM) 54.4% | viability, T/C [5] 61% | viability, T/C [6] 59.4% | viability, T/C (second compound 3.16 µM, first compound 0.000316 µM) 66.6% | viability, T/C (second compound 3.16 µM, first compound 0.001 µM) 64.3% | viability, T/C (second compound 3.16 µM, first compound 0.00316 µM) 57% | viability, T/C (second compound 3.16 µM, first compound 0.01 µM) 66.9% | viability, T/C [7] 52.9% | viability, T/C [8] 49% | viability, T/C (second compound 10 µM, first compound 0.000316 µM) 40.1% | viability, T/C (second compound 10 µM, first compound 0.001 µM) 46.6% | viability, T/C (second compound 10 µM, first compound 0.00316 µM) 42.9% | viability, T/C (second compound 10 µM, first compound 0.01 µM) 36.4% | viability, T/C (second compound 10 µM, first compound 0.0316 µM) 38% | viability, T/C (second compound 10 µM, first compound 0.1 µM) 33.9%
> 100 nM: IC50 (second compound 1 µM) | IC50 (second compound 3.16 µM)
< 0.316 nM: IC50 (second compound 10 µM)
